How the values were obtained:
[1] = target: Pseudomonas moorei glufosinate-ammonium dehydrogenase E3 (SEQ ID NO: 6) variant PPTGDH-L107R-F188P-G239K-F357G, SEQ ID NO: 9 (Pseudomonas moorei, UniProt A0A1H1HZ48, F188P/F357G/G239K/L107R); test: Kinetic parameters of purified mutant PPTGDH-L107R-F188P-G239K-F357G
Description: (§1) 1. […] The mutant proteins were purified by Ni-NTA column(1.6×10 cm, Bio-Rad, the USA), and the specific operations were carried out as follows: (1)equilibrate a Ni-NTA column with 5 column volumes of a binding buffer(pH 8.0, 50 mM sodium phosphate buffer containing 0.3 M NaCl) until the baseline is steady; (2)load the sample with a flow rate of 1 mL/min with the amount of the loading sample of 25-40 mg/mL, thereby attaching the target protein to the Ni-NTA column; (3)wash the column with 6 column volumes of buffer A (pH 8.0, 50 mM sodium phosphate buffer containing 0.3 M NaCl and 30 mM imidazole) at a flow rate of 1 mL/min until the baseline is steady; (4)wash the column with buffer B (pH 8.0, 50 mM sodium phosphate buffer containing 0.3 M NaCl and 500 mM imidazole) at a flow rate of 1 mL/min, collect the target protein and dialyze overnight in a pH 7.5, 20 mM phosphate buffer, thereby obtaining the pure glufosinate-ammonium dehydrogenase; and (5)wash the Ni-NTA column with 5 column volumes of a binding buffer(pH 8.0, 50 mM sodium phosphate buffer containing 0.3 M NaCl) until the baseline is steady, and store the Ni-NTA column in 5 column volumes of ultrapure water containing 20% ethanol.

[2] = target: Pseudomonas moorei glufosinate-ammonium dehydrogenase E3 (PPTGDH, PPTGDHE3, WP_090325311.1), wild type, SEQ ID NO: 6 (Pseudomonas moorei, UniProt A0A1H1HZ48); test: Kinetic parameters of purified original glufosinate-ammonium dehydrogenase PPTGDH; details: pH 7.4, 35° C.
Description: as §1

SMILES	catalytic efficiency for the coenzyme NADPH, times higher than that of the original enzyme ([1]; mutant vs original enzyme)	kcat/Km^A (NADPH) ([1]; pH 7.4, 35° C.)	kcat/Km^B (PPO) [2]	catalytic efficiency kcat/Km^B (PPO), times higher than that of the original enzyme ([1]; mutant vs original enzyme)	kcat/Km^B (PPO) ([1]; pH 7.4, 35° C.)
NC(=O)C1=CN([C@@H]2O[C@H](COP(=O)(O)OP(=O)(O)OC[C@H]3O[C@@H](n4cnc5c(N)ncnc54)[C@H](OP(=O)(O)O)[C@@H]3O)[C@@H](O)[C@H]2O)C=CC1 [NADPH]	34.61 times	1.3703e+07 M⁻¹ s⁻¹			
CP(=O)(O)CCC(=O)C(=O)O [PPO, 2-carbonyl-4-[(hydroxy)(methyl)phosphinoyl]-butyric acid]			15220 M⁻¹ s⁻¹	22.19 times	337730 M⁻¹ s⁻¹

Source: patent US12031160B2, “Method for the production of glufosinate-ammonium” (ZHEJIANG UNIVERSITY OF TECHNOLOGY, priority 2018, dated 2024)
